# Source: US20110130371A1, “C-ring-substituted pregn-4-ene-21,17-carbolactones, and pharmaceutical preparations comprising the same” (BAYER SCHERING PHARMA AKTIENGESSELSCHAFT, priority 2008, published 2011)
# Key:
# [1] = tested on: ovariectomized rats; assay: Progestational effect in ovariectomized rats (pregnancy maintenance test); type: in vivo, rat; conditions: ovariectomized pregnant rats, 5 μg/kg/d oestrone, treatment from day 8 p.c. for 6 days
# Method: This entails investigating the ability of the compounds to compensate for the lack of progesterone in ovariectomized animals which no longer have their own progesterone synthesis and to maintain pregnancy (“pregnancy maintenance”).
# Female animals weighing 200-230 g were mated. The animals were ovariectomized on day 8 post coitum (p.c.) and treated with 5 μg/kg/d oestrone. The compounds to be tested were given in various concentrations (3, 10, 30 mg/kg/d). Treatment was started on day 8 p.c. and continued for 6 days.
# One day after the last treatment, the animals were autopsied. The degree of pregnancy maintenance was calculated by dividing the number of live fetuses by the number of detectable implantation sites. The presence of a beating heart was decisive for assessing a fetus as alive. No identifiable implantation sites (ovariectomized controls) was defined as 0% pregnancy maintenance.
# The ED50 (concentration at which the half-maximum effect occurs) was determined as a measure of the progestational potency.
# [2] = tested on: adrenalectomized rats; assay: Antimineralocorticoid effect in adrenalectomized rats (diuresis experiment); type: in vivo, rat; conditions: for ED50, antimineralocorticoid effect in the diuresis experiment: adrenalectomized male rats, s.c., aldosterone 1 μg/kg/h, AUC of urinary Na/K ratio
# Method: The antimineralocorticoid effect of the compounds was determined as described by Losert at al. (Losert, W., Casals-Stenzel, J., and Buse, M. (1985). Progestogens with antimineralocorticoid activity. Arzneimittelforschung 35, 459-471).
# Male animals weighing 180-200 g were adrenalectomized 5 days before the experiment and received replacement with glucocorticoids. A diuresis experiment was carried out on day 5 after the adrenalectomy. A continuous infusion of isotonic NaCl solution plus 5% glucose was administered i.v. to the animals. Simultaneous administration of 1 μg/kg/h d-aldosterone achieved a constant mineralocorticoid effect, identifiable from sodium retention and kaliuresis. The test compounds were administered s.c. in various dosages (3, 10 and 30 mg/kg), and the abolition of the aldosterone-induced sodium retention indicates an antimineralocorticoid effect.
# The animals were kept in metabolism cages and urine fractions were collected each hour. The sodium and potassium ion concentration in the urine was determined by a flame-photometry method, and the Na/K ratio was calculated therefrom. The Na/K ratios were plotted against time and the area under the curve [AUC] was determined. The ED50 (concentration at which the half-maximum effect occurs) was determined as a measure of the antimineralocorticoid potency.
# [3] = biological target: T1, human androgen receptor (hAR) (Homo sapiens, UniProt P10275); assay: Antiandrogen transactivation assay (PC3 cells, hAR, MMTV-luciferase reporter); type: cell-based; conditions: for IC50: PC3 cells stably transfected with hAR and MMTV-luciferase, 16 hours incubation, read-out: IC50, antiandrogenic effect in the transactivation assay; for Efficacy: per cent of the maximum effect of reference antiandrogen hydroxyflutamide
# T1 construct: expressed in transfected cells; host or cells: PC3 cells, stably transfected with hAR and an MMTV-luciferase reporter
# T1 sequence (P10275 1-920): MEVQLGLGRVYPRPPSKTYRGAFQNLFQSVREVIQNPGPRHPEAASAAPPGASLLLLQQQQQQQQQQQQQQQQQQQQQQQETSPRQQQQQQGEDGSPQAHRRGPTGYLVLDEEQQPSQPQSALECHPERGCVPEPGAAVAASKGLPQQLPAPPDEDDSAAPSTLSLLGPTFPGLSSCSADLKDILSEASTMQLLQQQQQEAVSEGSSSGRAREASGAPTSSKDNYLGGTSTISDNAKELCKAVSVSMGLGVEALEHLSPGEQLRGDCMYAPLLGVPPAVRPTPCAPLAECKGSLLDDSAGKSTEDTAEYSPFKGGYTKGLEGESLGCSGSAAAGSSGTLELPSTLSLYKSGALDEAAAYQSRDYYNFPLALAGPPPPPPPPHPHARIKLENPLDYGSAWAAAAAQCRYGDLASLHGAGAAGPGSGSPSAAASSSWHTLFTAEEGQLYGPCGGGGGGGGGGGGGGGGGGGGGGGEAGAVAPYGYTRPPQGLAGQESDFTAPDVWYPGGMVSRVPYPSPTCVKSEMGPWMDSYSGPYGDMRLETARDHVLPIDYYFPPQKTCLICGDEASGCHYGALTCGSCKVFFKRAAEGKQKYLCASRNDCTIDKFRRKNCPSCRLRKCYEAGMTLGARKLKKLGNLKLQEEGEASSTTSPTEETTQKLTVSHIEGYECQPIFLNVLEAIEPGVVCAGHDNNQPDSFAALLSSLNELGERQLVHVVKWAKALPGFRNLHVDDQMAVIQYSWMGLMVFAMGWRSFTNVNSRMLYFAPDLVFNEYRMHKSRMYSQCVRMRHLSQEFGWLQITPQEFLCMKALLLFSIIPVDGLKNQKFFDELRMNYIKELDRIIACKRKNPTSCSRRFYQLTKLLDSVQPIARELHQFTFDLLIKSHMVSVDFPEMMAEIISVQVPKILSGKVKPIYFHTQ
# Method: The antiandrogenic effect was carried out as described in Schneider et al. (Schneider K., Graf E., Irran E., Nicholson G., Stainsby F. M., Goodfellow M., Borden S. A., Keller S., Süssmuth R. D. and Fiedler H. P. (2008) Bendigoles A˜C, New Steroids from Gordonia australis Acta 2299, J. Antibiotics (Tokyo) 61 (6), 356-364).
# The culture medium used for culturing cells used for the assay was RPMI (PAA, #E15-49) with 10% FCS, […] L-glutamine, 100 U/100 ug/ml penicillin/streptomycin. Reporter cell lines (PC3 cells stably transfected with human androgen receptor (hAR) and a reporter construct which comprises luciferase under the control of an androgen-responsive promoter (MMTV)) were grown at a density of 4×10^4 cells per well in white, opaque tissue culture plates with 96 wells in each (Perkin Elmer, #P12-106-017) and maintained in culture medium with 3% DCC-FCS (serum treated with activated carbon to remove interfering components present in the serum). The compounds to be investigated were added eight hours later, and the cells were incubated with the compounds for 16 hours. The experiments were carried out in triplicate. At the end of the incubation, the effector-containing medium was removed and replaced by lysis buffer.
# After luciferase assay substrate (Promega, #E1501) had been added, the plates with the 96 wells were then inserted into a microplate luminometer (Pherastar, BMG labtech), and the luminescence was measured. The IC50 values were evaluated using software for calculating dose-activity relationships. The efficacy indicates the per cent of the maximum effect by comparison with the maximum effect of a reference antiandrogen (hydroxyflutamide).
# [4] = tested on: orchidectomized rats; assay: Antiandrogenic effect in orchidectomized rats (Hershberger); type: in vivo, rat; conditions: for Antiandrogenic effect (% inhibition): 1 mg/kg/day TP s.c. plus 10 mg/kg/day test substance for seven days, prostate weight; for antiandrogenic effect (in words): Hershberger
# Method: This entails testing the suitability of the compounds for inhibiting the androgen-dependent growth of prostate, seminal vesicle and levator ani muscle in young, male, castrated rats receiving androgen replacement.
# For this purpose, young rats are initially castrated. Eight days after the orchidectomy, the animals receive 1 mg/kg/day testosterone propionate (TP) s.c. alone or in combination with the test substances (10 mg/kg/day) for seven days.
# On day 15 after the orchidectomy, the animals are sacrificed, and prostate, seminal vesicle and levator ani muscle are dissected out, and the relative wet weight is determined. The inhibited androgen-induced growth serves as a measure of the antiandrogenic effect of the test substance.
# [5] = tested on: ovariectomized rats; assay: Modified pregnancy maintenance experiment with pharmacokinetic/pharmacodynamic model (AUC versus pregnancy maintenance); type: in vivo; conditions: rat, calculated from physiologically based PK model
# Description: In order to describe the difference in their progestational potency more precisely, in a modified pregnancy maintenance experiment blood samples were additionally taken at various times to determine pharmacokinetic parameters. The rats were pretreated in this case as described in the preceding experiment. A physiologically based pharmacokinetic model was developed using the programmes PK-SIM, version 4.0.1 (Bayer Technology Services, Leverkusen, Germany), GastroPlus version 5.2 (Simulations Plus, Inc., Lancaster, Calif., USA) and WinNonlin® Professional (version 5.2, Pharsight Corp., Mountain View, Calif., USA).
# The relation was found between the AUC (area under the curve of the time-concentration profile) reached during the experiment and the measured pharmacological effect, i.e. the pregnancy maintenance achieved. The model thus permitted estimation of AUC50 values.
# Based on the relation between systemic exposure and effect, the AUC in blood necessary to achieve 80% pregnancy maintenance in the rat model was calculated (Table 2).
# [6] = tested on: IDI1 mRNA; assay: Antiandrogenic effect in orchidectomized rats, gene expression in prostate tissue (TaqMan PCR); conditions: for antiandrogenic effect (in words): IDI1 gene expression, orchidectomized rats; for Antiandrogenic effect (% inhibition): inhibition of TP-induced IDI1 mRNA induction, prostate, 24 hours; for fold induction at 10 mg/kg: Rattus norvegicus, 24 h, read-out: x-fold induction factor of IDI1 mRNA after TP administration
# Method: As a modification of the Hershberger assay described above, in addition animals were sacrificed 24 hours after the first treatment (1 mg/kg TP, 10 mg/kg test substance), and prostate tissue was shock-frozen immediately after the autopsy and then employed for mRNA isolation. A quantitative PCR method (TagMan) was used to investigate the induction (x-fold induction factor) of androgen-stimulated genes, inter alis of steroid biosynthesis (e.g. IDI1, NM 004508.2) as a measure of the androgenic effect of TP and the inhibition thereof by the compounds of the invention.
SMILES,"ED50, progestational effect in the pregnancy maintenance test [1] [mg/kg/day]","ED50, antimineralocorticoid effect in the diuresis experiment [2] [mg/kg/day]",IC50 [3] [nM],Efficacy [3] [per cent],Antiandrogenic effect (% inhibition) [4] [%],"AUC (blood, calculated) in rats necessary for 80% pregnancy maintenance [5]","ED50 ([2]; Rattus norvegicus, sc) [mg/kg]",antiandrogenic effect (in words) [4],antiandrogenic effect (in words) [6],Antiandrogenic effect (% inhibition) ([6]; 10 mg/kg test substance) [%],fold induction at 10 mg/kg [6],"x-fold induction factor of IDI1 mRNA after TP administration ([6]; prostate tissue 24 hours after first treatment, 1 mg/kg TP, 10 mg/kg test substance)"
"C[C@]12CCC(=O)C=C1[C@@H]1C[C@@H]1C1C2[C@@H](F)C[C@@]2(C)C1[C@@H]1C[C@@H]1[C@@]21CCC(=O)O1 (single isomer, unassigned) [Compound of Ex. 2, 6β,7β;15β,16β-Dimethylene-11β-fluoro-3-oxo-17-pregn-4-ene-21,17β-carbolactone]",3.4,12.36,160,31.9,3.8,,,,,,,
"C[C@]12CCC(=O)C=C1[C@@H]1C[C@@H]1C1C2CC[C@@]2(C)C1[C@@H]1C[C@@H]1[C@@]21CCC(=O)O1 (stereo partly drawn) [Drospirenone, 6β,7β-15β,16β-dimethylene-3-oxo-17-pregn-4-ene-21,17β-carbolactone]",10,,,,22.5,1346 (μg*h/L),6.7,smaller but distinct antiandrogenic effect,smaller but distinct antiandrogenic effect,27,,
"CC(=O)O[C@]1(C(C)=O)CC[C@H]2[C@@H]3C=C(Cl)C4=CC(=O)[C@@H]5C[C@@H]5[C@]4(C)[C@H]3CC[C@@]21C [Cyproterone acetate, cyproterone acetate]",,,,,73.1,,,strong antiandrogenic effect,strong antiandrogenic effect,91,1.53,
"C[C@]12CCC(=O)C=C1[C@@H]1C[C@@H]1C1C2=CC[C@@]2(C)C1[C@@H]1C[C@@H]1[C@@]21CCC(=O)O1 (stereo partly drawn) [Compound of Ex. 1, 6β,7β;15β,16β-Dimethylene-3-oxo-17-pregna-4,9(11)-diene-21,17β-carbolactone]",2.9,5.9,240,19.3,<0,210 (μg*h/L),,,no antiandrogenic effect,<0,7.89,
"CCC(=O)O[C@H]1CC[C@H]2[C@@H]3CCC4=CC(=O)CC[C@]4(C)[C@H]3CC[C@]12C [TP, testosterone propionate]",,,,,,,,,,,,7.07
